Columns and labels:
AZD1390 = compound: CC(C)n1c(=O)n(C)c2cnc3cc(F)c(-c4ccc(OCCCN5CCCCC5)nc4)cc3c21 [AZD1390]; conditions: max 0.3 µM
Outline: (§1)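 Following 24 hours at 37°C and 5% CO2, cancer cell lines in 1536-well plates with 7.5 μl DMEM/F12 or RPMI and 10% FBS were dosed for 72 hours, final DMSO typically being 0.2%. CellTiter-Glo 2.0 luminescence, scaled between blank-well and DMSO-well means, gave the viability readout. Dose responses were fitted to a two-parameter logistic curve with a non-linear mixed effects model, and the single-agent IC50 was derived from this fit.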

Gefitinib = compound: COc1cc2ncnc(Nc3ccc(F)c(Cl)c3)c2cc1OCCCN1CCOCC1 [Gefitinib]; conditions: max 10 µM
Outline: as §1

Trametinib = compound: CC(=O)Nc1cccc(-n2c(=O)n(C3CC3)c(=O)c3c(Nc4ccc(I)cc4F)n(C)c(=O)c(C)c32)c1 [Trametinib]; conditions: max 1 µM
Outline: as §1

Alisertib = compound: COc1cc(Nc2ncc3c(n2)-c2ccc(Cl)cc2C(c2c(F)cccc2OC)=NC3)ccc1C(=O)O [Alisertib]; conditions: max 10 µM
Outline: as §1

AZD8186 = compound: C[C@@H](Nc1cc(F)cc(F)c1)c1cc(C(=O)N(C)C)cc2c(=O)cc(N3CCOCC3)oc12 [AZD8186]; conditions: max 3 µM
Outline: as §1

Selumetinib = compound: Cn1cnc2c(F)c(Nc3ccc(Br)cc3Cl)c(C(=O)NOCCO)cc21 [Selumetinib]; conditions: max 10 µM
Outline: as §1

AZD7648 = compound: Cc1cc2ncnn2cc1Nc1ncc2c(n1)n(C1CCOCC1)c(=O)n2C [AZD7648]; conditions: max 10 µM
Outline: as §1

AZD4320 = compound: CN(CC[C@H](CSC1=CC=CC=C1)NC2=C(C=C(C=C2)S(=O)(=O)NC(=O)C3=CC=C(C=C3)N4CCC(CC4)[C@H](C5=CC=CC=C5C6=CC=C(C=C6)Cl)O)S(=O)(=O)C(F)(F)F)CCO [AZD4320]; conditions: max 1 µM
Outline: as §1

AZD5991 = compound: Cc1c2c(nn1C)CSCc1cc(n(C)n1)CSc1cc(c3ccccc3c1)OCCCc1c(C(=O)O)n(C)c3c-2c(Cl)ccc13 [AZD5991]; conditions: max 1 µM
Outline: as §1

SN-38 = compound: CCc1c2c(nc3ccc(O)cc13)-c1cc3c(c(=O)n1C2)COC(=O)[C@]3(O)CC [SN-38]; conditions: max 0.3 µM
Outline: as §1

SG3199 = compound: CC1=CN2[C@@H](C1)C=NC3=CC(=C(C=C3C2=O)OC)OCCCCCOC4=C(C=C5C(=C4)N=C[C@@H]6CC(=CN6C5=O)C)OC [SG3199]; conditions: max 0.001 µM
Outline: as §1

Venetoclax = compound: CC1(C)CCC(CN2CCN(c3ccc(C(=O)NS(=O)(=O)c4ccc(NCC5CCOCC5)c([N+](=O)[O-])c4)c(Oc4cnc5[nH]ccc5c4)c3)CC2)=C(c2ccc(Cl)cc2)C1 [Venetoclax]; conditions: max 1 µM
Outline: as §1

Lapatinib = compound: CS(=O)(=O)CCNCc1ccc(-c2ccc3ncnc(Nc4ccc(OCc5cccc(F)c5)c(Cl)c4)c3c2)o1 [Lapatinib]; conditions: max 10 µM
Outline: as §1

Doxorubicin = compound: COc1cccc2c1C(=O)c1c(O)c3c(c(O)c1C2=O)C[C@@](O)(C(=O)CO)C[C@@H]3O[C@H]1C[C@H](N)[C@H](O)[C@H](C)O1 [Doxorubicin]; conditions: max 1 µM
Outline: as §1

Palbociclib = compound: CC(=O)c1c(C)c2cnc(Nc3ccc(N4CCNCC4)cn3)nc2n(C2CCCC2)c1=O [Palbociclib]; conditions: max 10 µM
Outline: as §1

Capivasertib = compound: C1CN(CCC1(C(=O)N[C@@H](CCO)C2=CC=C(C=C2)Cl)N)C3=NC=NC4=C3C=CN4 [Capivasertib]; conditions: max 10 µM
Outline: as §1

Olaparib = compound: O=C(c1cc(Cc2n[nH]c(=O)c3ccccc23)ccc1F)N1CCN(C(=O)C2CC2)CC1 [Olaparib]; conditions: max 10 µM
Outline: as §1

AZD5153 = compound: COc1nnc2ccc(N3CCC(c4ccc(OCCN5CCN(C)C(=O)[C@H]5C)cc4)CC3)nn12 [AZD5153]; conditions: max 1 µM
Outline: as §1

Prexasertib = compound: COc1cccc(OCCCN)c1-c1cc(Nc2cnc(C#N)cn2)n[nH]1 [Prexasertib]; conditions: max 1 µM
Outline: as §1

Dasatinib = compound: CC1=C(C(=CC=C1)Cl)NC(=O)C2=CN=C(S2)NC3=CC(=NC(=N3)C)N4CCN(CC4)CCO [Dasatinib]; conditions: max 2 µM
Outline: as §1

Savolitinib = compound: C[C@@H](c1ccc2nccn2c1)n1nnc2ncc(-c3cnn(C)c3)nc21 [Savolitinib]; conditions: max 1 µM
Outline: as §1

AZD6738 = compound: C[C@@H]1COCCN1C2=NC(=NC(=C2)C3(CC3)[S@](=N)(=O)C)C4=C5C=CNC5=NC=C4 [AZD6738]; conditions: max 10 µM
Outline: as §1

MK-2206 = compound: NC1(c2ccc(-c3nc4ccn5c(=O)[nH]nc5c4cc3-c3ccccc3)cc2)CCC1 [MK-2206]; conditions: max 10 µM
Outline: as §1

Taselisib = compound: Cc1nc(-c2cn3c(n2)-c2ccc(-c4cnn(C(C)(C)C(N)=O)c4)cc2OCC3)n(C(C)C)n1 [Taselisib]; conditions: max 10 µM
Outline: as §1

AZD2811 = compound: CCN(CCO)CCCOc1ccc2c(Nc3cc(CC(=O)Nc4cccc(F)c4)[nH]n3)ncnc2c1 [AZD2811]; conditions: max 1 µM
Outline: as §1

AZD1775 = compound: C=CCn1c(=O)c2cnc(Nc3ccc(N4CCN(C)CC4)cc3)nc2n1-c1cccc(C(C)(C)O)n1 [AZD1775]; conditions: max 3 µM
Outline: as §1

Crizotinib = compound: C[C@@H](Oc1cc(-c2cnn(C3CCNCC3)c2)cnc1N)c1c(Cl)ccc(F)c1Cl [Crizotinib]; conditions: max 10 µM
Outline: as §1

AZD0156 = compound: CN(C)CCCOc1ccc(-c2ccc3ncc4c(c3c2)n(C2CCOCC2)c(=O)n4C)cn1 [AZD0156]; conditions: max 3 µM
Outline: as §1

Row | Cell Line | IC50, cell viability 72 h (AZD1390) [µM] | IC50, cell viability 72 h (Gefitinib) [µM] | IC50, cell viability 72 h (Trametinib) [µM] | IC50, cell viability 72 h (Alisertib) [µM] | IC50, cell viability 72 h (AZD8186) [µM] | IC50, cell viability 72 h (Selumetinib) [µM] | IC50, cell viability 72 h (AZD7648) [µM] | IC50, cell viability 72 h (AZD4320) [µM] | IC50, cell viability 72 h (AZD5991) [µM] | IC50, cell viability 72 h (SN-38) [µM] | IC50, cell viability 72 h (SG3199) [µM] | IC50, cell viability 72 h (Venetoclax) [µM] | IC50, cell viability 72 h (Lapatinib) [µM] | IC50, cell viability 72 h (Doxorubicin) [µM] | IC50, cell viability 72 h (Palbociclib) [µM] | IC50, cell viability 72 h (Capivasertib) [µM] | IC50, cell viability 72 h (Olaparib) [µM] | IC50, cell viability 72 h (AZD5153) [µM] | IC50, cell viability 72 h (Prexasertib) [µM] | IC50, cell viability 72 h (Dasatinib) [µM] | IC50, cell viability 72 h (Savolitinib) [µM] | IC50, cell viability 72 h (AZD6738) [µM] | IC50, cell viability 72 h (MK-2206) [µM] | IC50, cell viability 72 h (Taselisib) [µM] | IC50, cell viability 72 h (AZD2811) [µM] | IC50, cell viability 72 h (AZD1775) [µM] | IC50, cell viability 72 h (Crizotinib) [µM] | IC50, cell viability 72 h (AZD0156) [µM]
1 | B-CPAP (Thyroid Gland Carcinoma) | > 0.3 | > 10 | > 1 | 6.62 | > 3 | > 10 | > 10 | > 1 | > 1 | 0.025 | > 0.001 | > 1 | > 10 | 0.608 | > 10 | > 10 | > 10 | 0.379 | 0.149 | 0.324 | > 1 | > 10 | > 10 | > 10 | > 1 | 1.42 | > 10 | > 3
2 | EC-GI-10 (Esophageal Squamous Cell Carcinoma) | > 0.3 | 3.7 | 0.283 | 9.24 | > 3 | > 10 | > 10 | > 1 | > 1 | 0.0174 | > 0.001 | > 1 | 0.77 | > 1 | > 10 | > 10 | > 10 | > 1 | 0.171 | > 2 | > 1 | 8.22 |  | 0.496 | > 1 | 0.516 | > 10 | > 3
3 | NOS-1 (Osteosarcoma) | > 0.3 | > 10 | > 1 | > 10 | > 3 | > 10 | > 10 | > 1 | 0.361 | > 0.3 | > 0.001 | > 1 | > 10 | > 1 | > 10 | > 10 | > 10 | 0.119 | > 1 | 0.192 | > 1 | 7.74 |  | 1.44 | > 1 | 0.757 | 7.98 | > 3
4 | LNCaP-Clone-FGC (Prostate Carcinoma) | > 0.3 | > 10 | > 1 | > 10 | 0.129 | > 10 | > 10 | > 1 | > 1 | 0.0308 | > 0.001 | > 1 | > 10 | 0.17 | > 10 | 0.134 | > 10 | 0.0944 | 0.0356 | > 2 | > 1 | 3.58 |  | 0.957 | > 1 | 0.811 | 8.7 | > 3
5 | DEL (T-Cell Non-Hodgkin's Lymphoma) | > 0.3 | > 10 | > 1 | 0.0203 | > 3 | > 10 | > 10 | > 1 | 0.0287 | 0.0023 | > 0.001 | > 1 | 8.54 | 0.0913 | 3.53 | > 10 | 8.26 | 0.0275 | 0.0054 | > 2 | > 1 | 0.707 |  | > 10 | 0.151 | 0.178 | 0.12 | 2.81
6 | COLO-205 (Colorectal Carcinoma) | > 0.3 | > 10 | 0.00616 | 0.743 | > 3 | 0.302 | > 10 | > 1 | > 1 | > 0.3 | > 0.001 | > 1 | > 10 | 0.518 | 7.97 | > 10 | > 10 | 0.499 | 0.782 | > 2 | > 1 | > 10 |  | 4.25 | 0.116 | > 3 | 4.11 | > 3
7 | HCC1806 (Breast Carcinoma) | > 0.3 | > 10 | > 1 | > 10 | > 3 | > 10 | > 10 | > 1 | > 1 | 0.0121 | > 0.001 | > 1 | 6.2 | 0.258 | > 10 | > 10 | > 10 | 0.301 | 0.00618 | 0.414 | > 1 | 1.08 | > 10 | 7.68 | > 1 | 0.271 | 9.23 | > 3
8 | Daoy (Other Solid Carcinomas) | > 0.3 | > 10 | > 1 | 0.818 | > 3 | > 10 | > 10 | > 1 | > 1 | 0.00444 | > 0.001 | > 1 | > 10 | 0.141 | > 10 | > 10 | > 10 | 0.489 | 0.0467 | > 2 | > 1 | 3.18 |  | 4.73 | > 1 | 0.398 | > 10 | > 3
